Laboratory results published in patent US20250186405A1, “Compound For Use In Treating Narcolepsy” (Alkermes, Inc., priority 2023, published 2025).
Values joined by “and” are separate entries in the source; they are usually repeats but may differ in a detail not shown here. Equal entries are not always repeated.

Tested on: subjects with narcolepsy type-1 (NT1)
Assay: Part 4 POC NT1: treatment-emergent adverse events, single doses, crossover
Type: in vivo, human
Procedure: Subjects were randomized to 1 of 4 sequences.
Each subject received three doses of Compound A, including 1, 3, and 8 mg, and a single dose of placebo. […] All subjects underwent the washout period and completed all 4-way randomized crossover periods.
With one exception, each subject received three doses of Compound A, including 1, 3, and 8 mg, and a single dose of placebo. One patient withdrew from the study after the first dose due to venous access complications. […] With the exception of one patient as noted above, all subjects underwent the washout period and completed all 4-way randomized crossover periods.

## CS(=O)(=O)N[C@H]1CCCN2C(=O)COc3ccccc3C3CCC(CC3)OCC12 (stereo partly drawn) [Compound A, N-[(4S,4aR,7α,10α)-1,2,3,4,4a,5,7,8,9,10,16,17-dodecahydro-17-oxo-7,10-ethanopyrido[1,2-d][1,7,4]benzodioxaazacyclotridecin-4-yl]methanesulfonamide]
1 mg (N = 4)
  AE Leading to Study Drug Discontinuation: 0 n (%)
  Any SAEs: 0 n (%)
  Any TEAE: 1 (25.0) n (%)
  Death: 0 n (%)
  TEAE Anaemia: 0 n (%)
  TEAE Application site dermatitis: 1 (25.0) n (%)
  TEAE Blood pressure increased: 0 n (%)
  TEAE Bruxism: 0 n (%)
  TEAE Dermatitis contact: 0 n (%)
  TEAE Dizziness: 0 n (%)
  TEAE Hyperhidrosis: 0 n (%)
  TEAE Hyperlipidaemia: 0 n (%)
  TEAE Insomnia: 0 n (%)
  TEAE Pollakiuria: 0 n (%)
  TEAE Procedural anxiety: 0 n (%)
  TEAE Salivary hypersecretion: 0 n (%)
  TEAE Vascular access site injury: 0 n (%)
  TEAE Vessel puncture site bruise: 0 n (%)
  TEAE by Highest Relationship: Not Related: 1 (25.0) n (%)
  TEAE by Highest Relationship: Related: 0 n (%)
  TEAE by Highest Severity: Mild: 1 (25.0) n (%)
  TEAE by Highest Severity: Moderate: 0 n (%)
  TEAE by Highest Severity: Severe: 0 n (%)
1 mg (N = 9)
  AE Leading to Study Drug Discontinuation: 0 n (%)
  Any SAEs: 0 n (%)
  Any TEAE: 6 (66.7) n (%)
  Death: 0 n (%)
  TEAE Anaemia: 0 n (%)
  TEAE Application site dermatitis: 1 (11.1) n (%)
  TEAE Back pain: 0 n (%)
  TEAE Blood pressure increased: 0 n (%)
  TEAE Bruxism: 0 n (%)
  TEAE Decreased appetite: 1 (11.1) n (%)
  TEAE Dehydration: 1 (11.1) n (%)
  TEAE Dermatitis contact: 0 n (%)
  TEAE Dizziness: 1 (11.1) n (%)
  TEAE Haemoglobin decreased: 0 n (%)
  TEAE Headache: 0 n (%)
  TEAE Hyperhidrosis: 0 n (%)
  TEAE Hyperlipdaemia: 0 n (%)
  TEAE Insomnia: 0 n (%)
  TEAE Middle Insomnia: 0 n (%)
  TEAE Nausea: 2 (22.2) n (%)
  TEAE Pollakiuria: 0 n (%)
  TEAE Salivary hypersecretion: 1 (11.1) n (%)
  TEAE Sinus tachycardia: 1 (11.1) n (%)
  TEAE Vascular access site injury: 0 n (%)
  TEAE Vessel puncture site bruise: 0 n (%)
  TEAE Vessel puncture site pain: 0 n (%)
  TEAE by Highest Relationship: Not Related: 1 (11.1) n (%)
  TEAE by Highest Relationship: Related: 5 (55.6) n (%)
  TEAE by Highest Severity: Mild: 6 (66.7) n (%)
  TEAE by Highest Severity: Moderate: 0 n (%)
  TEAE by Highest Severity: Severe: 0 n (%)
3 mg (N = 4)
  AE Leading to Study Drug Discontinuation: 0 n (%)
  Any SAEs: 0 n (%)
  Any TEAE: 2 (50.0) n (%)
  Death: 0 n (%)
  TEAE Anaemia: 0 n (%)
  TEAE Application site dermatitis: 0 n (%)
  TEAE Blood pressure increased: 0 n (%)
  TEAE Bruxism: 0 n (%)
  TEAE Dermatitis contact: 1 (25.0) n (%)
  TEAE Dizziness: 0 n (%)
  TEAE Hyperhidrosis: 0 n (%)
  TEAE Hyperlipidaemia: 0 n (%)
  TEAE Insomnia: 0 n (%)
  TEAE Pollakiuria: 0 n (%)
  TEAE Procedural anxiety: 1 (25.0) n (%)
  TEAE Salivary hypersecretion: 0 n (%)
  TEAE Vascular access site injury: 1 (25.0) n (%)
  TEAE Vessel puncture site bruise: 1 (25.0) n (%)
  TEAE by Highest Relationship: Not Related: 2 (50.0) n (%)
  TEAE by Highest Relationship: Related: 0 n (%)
  TEAE by Highest Severity: Mild: 2 (50.0) n (%)
  TEAE by Highest Severity: Moderate: 0 n (%)
  TEAE by Highest Severity: Severe: 0 n (%)
3 mg (N = 9)
  AE Leading to Study Drug Discontinuation: 0 n (%)
  Any SAEs: 0 n (%)
  Any TEAE: 5 (55.6) n (%)
  Death: 0 n (%)
  TEAE Anaemia: 0 n (%)
  TEAE Application site dermatitis: 0 n (%)
  TEAE Back pain: 0 n (%)
  TEAE Blood pressure increased: 0 n (%)
  TEAE Bruxism: 0 n (%)
  TEAE Decreased appetite: 0 n (%)
  TEAE Dehydration: 0 n (%)
  TEAE Dermatitis contact: 2 (22.2) n (%)
  TEAE Dizziness: 0 n (%)
  TEAE Haemoglobin decreased: 0 n (%)
  TEAE Headache: 0 n (%)
  TEAE Hyperhidrosis: 0 n (%)
  TEAE Hyperlipdaemia: 0 n (%)
  TEAE Insomnia: 0 n (%)
  TEAE Middle Insomnia: 1 (11.1) n (%)
  TEAE Nausea: 0 n (%)
  TEAE Pollakiuria: 2 (22.2) n (%)
  TEAE Salivary hypersecretion: 1 (11.1) n (%)
  TEAE Sinus tachycardia: 0 n (%)
  TEAE Vascular access site injury: 1 (11.1) n (%)
  TEAE Vessel puncture site bruise: 1 (11.1) n (%)
  TEAE Vessel puncture site pain: 0 n (%)
  TEAE by Highest Relationship: Not Related: 2 (22.2) n (%)
  TEAE by Highest Relationship: Related: 3 (33.3) n (%)
  TEAE by Highest Severity: Mild: 5 (55.6) n (%)
  TEAE by Highest Severity: Moderate: 0 n (%)
  TEAE by Highest Severity: Severe: 0 n (%)
8 mg (N = 4)
  AE Leading to Study Drug Discontinuation: 0 n (%)
  Any SAEs: 0 n (%)
  Any TEAE: 4 (100) n (%) and 4 n (%)
  Death: 0 n (%)
  TEAE Anaemia: 0 n (%)
  TEAE Application site dermatitis: 1 n (%)
  TEAE Blood pressure increased: 1 n (%)
  TEAE Bruxism: 1 n (%)
  TEAE Dermatitis contact: 0 n (%)
  TEAE Dizziness: 1 n (%)
  TEAE Hyperhidrosis: 1 n (%)
  TEAE Hyperlipidaemia: 0 n (%)
  TEAE Insomnia: 3 n (%)
  TEAE Pollakiuria: 2 n (%)
  TEAE Procedural anxiety: 0 n (%)
  TEAE Salivary hypersecretion: 2 n (%)
  TEAE Vascular access site injury: 0 n (%)
  TEAE Vessel puncture site bruise: 0 n (%)
  TEAE by Highest Relationship: Not Related: 0 n (%)
  TEAE by Highest Relationship: Related: 4 (100) n (%)
  TEAE by Highest Severity: Mild: 4 (100) n (%)
  TEAE by Highest Severity: Moderate: 0 n (%)
  TEAE by Highest Severity: Severe: 0 n (%)
8 mg (N = 10)
  AE Leading to Study Drug Discontinuation: 0 n (%)
  Any SAEs: 0 n (%)
  Any TEAE: 9 (90.0) n (%)
  Death: 0 n (%)
  TEAE Anaemia: 0 n (%)
  TEAE Application site dermatitis: 1 (10.0) n (%)
  TEAE Back pain: 1 (10.0) n (%)
  TEAE Blood pressure increased: 1 (10.0) n (%)
  TEAE Bruxism: 1 (10.0) n (%)
  TEAE Decreased appetite: 1 (10.0) n (%)
  TEAE Dehydration: 0 n (%)
  TEAE Dermatitis contact: 0 n (%)
  TEAE Dizziness: 2 (20.0) n (%)
  TEAE Haemoglobin decreased: 1 (10.0) n (%)
  TEAE Headache: 0 n (%)
  TEAE Hyperhidrosis: 1 (10.0) n (%)
  TEAE Hyperlipdaemia: 0 n (%)
  TEAE Insomnia: 3 (30.0) n (%)
  TEAE Middle Insomnia: 3 (30.0) n (%)
  TEAE Nausea: 2 (20.0) n (%)
  TEAE Pollakiuria: 4 (40.0) n (%)
  TEAE Salivary hypersecretion: 3 (30.0) n (%)
  TEAE Sinus tachycardia: 1 (10.0) n (%)
  TEAE Vascular access site injury: 0 n (%)
  TEAE Vessel puncture site bruise: 2 (20.0) n (%)
  TEAE Vessel puncture site pain: 2 (20.0) n (%)
  TEAE by Highest Relationship: Not Related: 0 n (%)
  TEAE by Highest Relationship: Related: 9 (90.0) n (%)
  TEAE by Highest Severity: Mild: 8 (80.0) n (%)
  TEAE by Highest Severity: Moderate: 1 (10.0) n (%)
  TEAE by Highest Severity: Severe: 0 n (%)
NT1, 1, 3 and 8 mg
  Tolerability: well tolerated
Total (N = 4)
  AE Leading to Study Drug Discontinuation: 0 n (%)
  Any SAEs: 0 n (%)
  Any TEAE: 4 (100) n (%) and 4 n (%)
  Death: 0 n (%)
  TEAE Anaemia: 0 n (%)
  TEAE Application site dermatitis: 2 n (%)
  TEAE Blood pressure increased: 1 n (%)
  TEAE Bruxism: 1 n (%)
  TEAE Dermatitis contact: 1 n (%)
  TEAE Dizziness: 1 n (%)
  TEAE Hyperhidrosis: 1 n (%)
  TEAE Hyperlipidaemia: 0 n (%)
  TEAE Insomnia: 3 n (%)
  TEAE Pollakiuria: 2 n (%)
  TEAE Procedural anxiety: 1 n (%)
  TEAE Salivary hypersecretion: 2 n (%)
  TEAE Vascular access site injury: 1 n (%)
  TEAE Vessel puncture site bruise: 1 n (%)
  TEAE by Highest Relationship: Not Related: 0 n (%)
  TEAE by Highest Relationship: Related: 4 (100) n (%)
  TEAE by Highest Severity: Mild: 4 (100) n (%)
  TEAE by Highest Severity: Moderate: 0 n (%)
  TEAE by Highest Severity: Severe: 0 n (%)
Total (N = 10)
  Any TEAE: 9 (90.0) n (%)
  TEAE Anaemia: 0 n (%)
  TEAE Application site dermatitis: 2 (20.0) n (%)
  TEAE Back pain: 1 (10.0) n (%)
  TEAE Blood pressure increased: 1 (10.0) n (%)
  TEAE Bruxism: 1 (10.0) n (%)
  TEAE Decreased appetite: 2 (20.0) n (%)
  TEAE Dehydration: 1 (10.0) n (%)
  TEAE Dermatitis contact: 2 (20.0) n (%)
  TEAE Dizziness: 2 (20.0) n (%)
  TEAE Haemoglobin decreased: 1 (10.0) n (%)
  TEAE Headache: 0 n (%)
  TEAE Hyperhidrosis: 1 (10.0) n (%)
  TEAE Hyperlipdaemia: 0 n (%)
  TEAE Insomnia: 3 (30.0) n (%)
  TEAE Middle Insomnia: 3 (30.0) n (%)
  TEAE Nausea: 2 (20.0) n (%)
  TEAE Pollakiuria: 4 (40.0) n (%)
  TEAE Salivary hypersecretion: 3 (30.0) n (%)
  TEAE Sinus tachycardia: 1 (10.0) n (%)
  TEAE Vascular access site injury: 1 (10.0) n (%)
  TEAE Vessel puncture site bruise: 3 (30.0) n (%)
  TEAE Vessel puncture site pain: 2 (20.0) n (%)
